How the values were obtained:
Assay type in all cases: cell-based
human TLR7 = target: T1, human TLR7 (Homo sapiens, UniProt Q9NYK1); assay: TLR7 inhibition reporter assay (HEK-Blue cells, SEAP reporter, gardiquimod stimulation); details: HEK-Blue cells overexpressing human TLR7, SEAP reporter, gardiquimod 7.5 μM
T1 construct: host or cells: HEK-Blue cells (HEK293-derived reporter line)
T1 sequence (Q9NYK1 27-1049): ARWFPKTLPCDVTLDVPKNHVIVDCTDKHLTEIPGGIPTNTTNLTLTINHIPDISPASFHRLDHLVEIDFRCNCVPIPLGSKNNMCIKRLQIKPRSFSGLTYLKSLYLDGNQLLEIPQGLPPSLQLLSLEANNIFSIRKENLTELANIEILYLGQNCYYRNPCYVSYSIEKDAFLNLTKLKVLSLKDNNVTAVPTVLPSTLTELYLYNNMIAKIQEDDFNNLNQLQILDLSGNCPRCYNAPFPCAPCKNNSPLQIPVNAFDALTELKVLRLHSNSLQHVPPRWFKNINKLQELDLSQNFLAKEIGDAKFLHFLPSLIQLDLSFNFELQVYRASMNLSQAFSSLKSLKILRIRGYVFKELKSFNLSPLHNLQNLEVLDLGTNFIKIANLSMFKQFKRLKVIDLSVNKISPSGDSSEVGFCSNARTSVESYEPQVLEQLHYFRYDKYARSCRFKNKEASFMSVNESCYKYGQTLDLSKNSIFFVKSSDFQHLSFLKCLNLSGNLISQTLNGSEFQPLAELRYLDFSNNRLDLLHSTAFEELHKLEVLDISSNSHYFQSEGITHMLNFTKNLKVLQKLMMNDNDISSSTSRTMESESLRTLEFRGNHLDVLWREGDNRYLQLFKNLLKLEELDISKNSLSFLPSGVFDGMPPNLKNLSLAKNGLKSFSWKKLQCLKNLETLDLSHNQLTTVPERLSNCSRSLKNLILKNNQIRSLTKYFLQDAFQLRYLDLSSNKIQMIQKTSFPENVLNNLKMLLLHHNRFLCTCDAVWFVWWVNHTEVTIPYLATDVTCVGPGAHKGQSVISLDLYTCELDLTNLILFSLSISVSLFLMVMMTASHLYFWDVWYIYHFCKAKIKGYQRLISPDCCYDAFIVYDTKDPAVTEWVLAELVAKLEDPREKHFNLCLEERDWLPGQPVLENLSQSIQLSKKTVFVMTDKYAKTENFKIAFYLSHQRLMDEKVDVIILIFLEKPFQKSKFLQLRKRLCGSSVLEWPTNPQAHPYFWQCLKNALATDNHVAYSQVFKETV
In short: (§1)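 HEK-Blue cells overexpressing the receptor, with NF-κB/AP-1-driven SEAP, were pre-treated 30 min at room temperature with compound (0.05 nM–50 μM), then stimulated with gardiquimod 7.5 μM (TLR7), R848 15.9 μM (TLR8) or ODN2006 5 nM (TLR9). SEAP was read after 22 h at 37 °C as percent inhibition.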

human TLR9 = target: T2, human TLR9 (Homo sapiens, UniProt Q9NR96); assay: TLR9 inhibition reporter assay (HEK-Blue cells, SEAP reporter, ODN2006 stimulation); details: HEK-Blue cells overexpressing human TLR9, SEAP reporter, ODN2006 5 nM
T2 construct: host or cells: HEK-Blue cells (HEK293-derived reporter line)
T2 sequence (Q9NR96 26-1032): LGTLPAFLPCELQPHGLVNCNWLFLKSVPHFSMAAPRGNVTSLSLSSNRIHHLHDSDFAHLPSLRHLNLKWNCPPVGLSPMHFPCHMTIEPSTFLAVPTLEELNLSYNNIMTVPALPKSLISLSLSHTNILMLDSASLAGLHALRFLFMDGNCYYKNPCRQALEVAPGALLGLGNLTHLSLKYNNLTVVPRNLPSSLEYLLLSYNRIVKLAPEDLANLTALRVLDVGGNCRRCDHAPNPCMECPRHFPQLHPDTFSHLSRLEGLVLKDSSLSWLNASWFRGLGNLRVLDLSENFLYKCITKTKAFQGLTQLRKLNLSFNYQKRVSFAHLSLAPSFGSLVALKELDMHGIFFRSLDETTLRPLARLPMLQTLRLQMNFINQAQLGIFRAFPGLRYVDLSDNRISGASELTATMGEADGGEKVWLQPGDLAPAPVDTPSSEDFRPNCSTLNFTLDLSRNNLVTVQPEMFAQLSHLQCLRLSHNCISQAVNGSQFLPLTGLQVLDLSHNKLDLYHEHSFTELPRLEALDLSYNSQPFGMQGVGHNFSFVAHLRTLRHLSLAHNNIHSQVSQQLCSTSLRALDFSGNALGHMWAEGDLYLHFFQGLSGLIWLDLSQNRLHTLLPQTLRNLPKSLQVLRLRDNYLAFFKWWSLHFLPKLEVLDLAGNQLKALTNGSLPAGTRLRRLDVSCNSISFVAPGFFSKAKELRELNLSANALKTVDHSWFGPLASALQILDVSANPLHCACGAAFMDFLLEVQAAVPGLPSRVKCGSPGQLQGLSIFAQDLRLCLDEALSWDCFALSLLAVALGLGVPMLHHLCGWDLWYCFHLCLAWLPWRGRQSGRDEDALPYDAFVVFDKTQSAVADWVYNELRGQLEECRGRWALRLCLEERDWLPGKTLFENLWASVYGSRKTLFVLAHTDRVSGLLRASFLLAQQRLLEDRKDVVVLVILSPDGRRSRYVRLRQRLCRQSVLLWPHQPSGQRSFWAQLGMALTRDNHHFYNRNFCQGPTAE
In short: as §1

human TLR8 = target: T3, human TLR8 (Homo sapiens, UniProt Q9NR97); assay: TLR8 inhibition reporter assay (HEK-Blue cells, SEAP reporter, R848 stimulation); details: HEK-Blue cells overexpressing human TLR8, SEAP reporter, R848 15.9 μM
T3 construct: host or cells: HEK-Blue cells (HEK293-derived reporter line)
T3 sequence (Q9NR97 27-1041): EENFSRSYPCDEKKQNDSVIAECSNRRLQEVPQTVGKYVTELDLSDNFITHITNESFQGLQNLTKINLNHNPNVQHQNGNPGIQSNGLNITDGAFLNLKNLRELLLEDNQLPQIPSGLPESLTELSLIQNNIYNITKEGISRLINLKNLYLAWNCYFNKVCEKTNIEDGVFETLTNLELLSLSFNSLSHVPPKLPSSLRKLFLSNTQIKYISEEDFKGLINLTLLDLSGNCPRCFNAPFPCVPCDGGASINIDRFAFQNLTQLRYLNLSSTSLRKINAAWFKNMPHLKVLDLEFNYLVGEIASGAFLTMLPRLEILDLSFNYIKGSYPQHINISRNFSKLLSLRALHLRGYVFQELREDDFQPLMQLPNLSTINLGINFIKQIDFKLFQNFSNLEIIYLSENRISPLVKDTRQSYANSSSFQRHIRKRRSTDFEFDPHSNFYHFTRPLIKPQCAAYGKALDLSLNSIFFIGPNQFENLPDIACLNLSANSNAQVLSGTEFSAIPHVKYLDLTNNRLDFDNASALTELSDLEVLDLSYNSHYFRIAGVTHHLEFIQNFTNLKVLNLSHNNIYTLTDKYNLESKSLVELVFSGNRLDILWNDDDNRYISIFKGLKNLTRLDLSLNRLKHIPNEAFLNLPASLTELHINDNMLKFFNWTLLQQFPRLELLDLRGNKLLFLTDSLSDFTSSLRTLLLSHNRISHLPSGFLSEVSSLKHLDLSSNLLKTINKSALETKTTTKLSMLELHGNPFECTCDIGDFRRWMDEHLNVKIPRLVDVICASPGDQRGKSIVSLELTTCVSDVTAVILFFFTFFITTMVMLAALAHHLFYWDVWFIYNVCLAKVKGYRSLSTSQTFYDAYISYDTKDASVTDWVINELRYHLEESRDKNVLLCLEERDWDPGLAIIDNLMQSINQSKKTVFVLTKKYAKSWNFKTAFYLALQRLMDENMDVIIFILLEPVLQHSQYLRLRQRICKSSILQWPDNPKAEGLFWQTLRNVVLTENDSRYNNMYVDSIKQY
In short: as §1

IC50 (human TLR7) [µM] | IC50 (human TLR9) [µM] | IC50 (human TLR8) [µM] | SMILES
< 0.1 | 1 to 50 | < 0.1 | CC(C)NCC(=O)N1CCC(c2ccc3[nH]c(-c4ccnc5[nH]ncc45)c(C(C)C)c3c2)CC1 [Example 578, 1-(4-(3-isopropyl-2-(1H-pyrazolo[3,4-b]pyridin-4-yl)-1H-indol-5-yl)piperidin-1-yl)-2-(isopropylamino)ethan-1-one]
0.1 to 1 | 1 to 50 | < 0.1 | CNCCN1CCC(c2ccc3[nH]c(-c4ccnc5[nH]ncc45)c(C(C)C)c3c2)C(F)C1 (stereo not drawn) [Example 678, 2-(3-fluoro-4-(3-isopropyl-2-(1H-pyrazolo[3,4-b]pyridin-4-yl)-1H-indol-5-yl)piperidin-1-yl)-N-methylethan-1-amine]
1 to 50 | < 0.1 | 1 to 50 | Cc1c(-c2nccc3[nH]cnc23)[nH]c2ccc(C3CCN(C4CCN(C(C)C)CC4)CC3)cc12 [Example 805, 4-(5-(1′-isopropyl-[1,4′-bipiperidin]-4-yl)-3-methyl-1H-indol-2-yl)-1H-imidazo[4,5-c]pyridine]
> 3.13 | 1 to 50 | > 3.13 | Cc1cc2cc(-c3[nH]c4ccc(C5CCN(C(=O)CN(C)C)CC5)cc4c3C(C)C)cc(CC(C)C)n2n1 [Example 524, 2-(dimethylamino)-1-(4-(2-(7-isobutyl-2-methylpyrazolo[1,5-a]pyridin-5-yl)-3-isopropyl-1H-indol-5-yl)piperidin-1-yl)ethan-1-one]
< 0.1 | 1 to 50 | < 0.1 | Cc1cc(-c2[nH]c3ccc(C4CCN(CC(=O)N(C)C)CC4)cc3c2C(C)C)cc2ccnn12 [Example 442, 2-(4-(3-isopropyl-2-(7-methylpyrazolo[1,5-a]pyridin-5-yl)-1H-indol-5-yl)piperidin-1-yl)-N,N-dimethylacetamide]
< 0.1 | 1 to 50 | < 0.1 | CNC(=O)CN1CCC(c2ccc3[nH]c(-c4ccc(C#N)c5ncccc45)c(C(C)C)c3c2)CC1 [Example 371, 2-(4-(2-(8-cyanoquinolin-5-yl)-3-isopropyl-1H-indol-5-yl)piperidin-1-yl)-N-methylacetamide]
0.1 to 1 | 1 to 50 | 0.1 to 1 | CNC(=O)CN1CCC(c2ccc3[nH]c(-c4ccc5cnnn5c4)c(C(C)C)c3c2)CC1 [Example 300, 2-(4-(2-([1,2,3]triazolo[1,5-a]pyridin-6-yl)-3-isopropyl-1H-indol-5-yl)piperidin-1-yl)-N-methylacetamide]
< 0.1 | 1 to 50 | < 0.1 | Cc1cc(-c2[nH]c3ccc(C4CCN(C(=O)CN5CC6(COC6)C5)CC4)cc3c2C(C)C)cn2nnnc12 [Example 471, 1-(4-(3-isopropyl-2-(8-methyltetrazolo[1,5-a]pyridin-6-yl)-1H-indol-5-yl)piperidin-1-yl)-2-(2-oxa-6-azaspiro[3.3]heptan-6-yl)ethan-1-one]
1 to 50 | 1 to 50 | > 50 | CCc1c(-c2cccc3c2cnn3C)[nH]c2ccc(C3CCNCC3)cc12 [Example 100, 4-(3-ethyl-5-(piperidin-4-yl)-1H-indol-2-yl)-1-methyl-1H-indazole]
< 0.1 | 0.1 to 1 | < 0.1 | Cc1c(-c2[nH]c3ccc(C4CCN(CC(=O)N(C)C)CC4)cc3c2C(C)C)cn2ccnc2c1C [Example 412, 2-(4-(2-(7,8-dimethylimidazo[1,2-a]pyridin-6-yl)-3-isopropyl-1H-indol-5-yl)piperidin-1-yl)-N,N-dimethylacetamide]
0.1 to 1 | < 0.1 | < 0.1 | Cc1c(-c2ncnc3[nH]ccc23)[nH]c2ccc(C3CCN(C4CCN(C(C)C)CC4)CC3)cc12 [Example 814, 4-(5-(1′-isopropyl-[1,4′-bipiperidin]-4-yl)-3-methyl-1H-indol-2-yl)-7H-pyrrolo[2,3-d]pyrimidine]
0.1 to 1 | 1 to 50 | < 0.1 | CC(=O)N1CCC(C(=O)N2CCC(c3ccc4[nH]c(-c5ccnc6[nH]ncc56)c(C(C)C)c4c3)CC2)CC1 [Example 646, 1-(4-(4-(3-isopropyl-2-(1H-pyrazolo[3,4-b]pyridin-4-yl)-1H-indol-5-yl)piperidine-1-carbonyl)piperidin-1-yl)ethan-1-one]
< 0.1 | 0.1 to 1 | < 0.1 | CC(C)c1c(-c2cnc3cn[nH]c3c2)[nH]c2ccc(C3CCNCC3)cc12 [Example 63, 6-(3-isopropyl-5-(piperidin-4-yl)-1H-indol-2-yl)-1H-pyrazolo[4,3-b]pyridine]
< 0.1 | 1 to 50 | < 0.1 | CNC(=O)CN1CCC(c2ccc3[nH]c(-c4ccnc5[nH]ncc45)c(C(C)C)c3c2)CC1 [Example 276, 2-(4-(3-isopropyl-2-(1H-pyrazolo[3,4-b]pyridin-4-yl)-1H-indol-5-yl)piperidin-1-yl)-N-methylacetamide]
